Experimental data reported in article PMC11085448 (Molecules, 2024).
Several values for one entry are separate records, joined by “and”; a condition that tells them apart may be missing. Equal entries are not always repeated.

Assays:
[1] = target: T1, human κ-opioid receptor (OPRK1) (Homo sapiens, UniProt P41145); assay: forskolin-induced cAMP accumulation assay, KOR agonist; conditions: for EC50: KOR Agonist EC50 ± SEM, inhibition of forskolin-induced cAMP accumulation, CHO-K1 cells expressing human KOR; for Emax: CHO-K1, read-out: KOR Agonist %Emax ± SEM, CHO-K1 cells expressing human KOR, normalized to the forskolin control
T1 sequence (P41145 whole entry): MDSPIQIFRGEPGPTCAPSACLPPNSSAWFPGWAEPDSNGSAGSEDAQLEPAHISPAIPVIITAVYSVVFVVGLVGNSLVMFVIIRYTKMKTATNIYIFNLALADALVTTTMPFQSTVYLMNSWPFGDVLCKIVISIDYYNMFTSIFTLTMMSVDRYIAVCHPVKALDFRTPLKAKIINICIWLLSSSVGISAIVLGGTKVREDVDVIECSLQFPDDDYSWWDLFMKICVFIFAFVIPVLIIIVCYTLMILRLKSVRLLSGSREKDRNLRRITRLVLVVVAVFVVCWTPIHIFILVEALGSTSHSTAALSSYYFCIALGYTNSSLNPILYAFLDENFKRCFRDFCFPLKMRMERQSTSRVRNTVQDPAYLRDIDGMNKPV

[2] = target: T2, human μ-opioid receptor (OPRM1) (Homo sapiens, UniProt P35372); assay: cell-based; conditions: for EC50: MOR Agonist EC50 ± SEM; for Emax: read-out: MOR Agonist %Emax ± SEM
T2 construct: host or cells: cAMP Hunter CHO-K1 (Chinese hamster ovary) cells
T2 sequence (P35372 whole entry): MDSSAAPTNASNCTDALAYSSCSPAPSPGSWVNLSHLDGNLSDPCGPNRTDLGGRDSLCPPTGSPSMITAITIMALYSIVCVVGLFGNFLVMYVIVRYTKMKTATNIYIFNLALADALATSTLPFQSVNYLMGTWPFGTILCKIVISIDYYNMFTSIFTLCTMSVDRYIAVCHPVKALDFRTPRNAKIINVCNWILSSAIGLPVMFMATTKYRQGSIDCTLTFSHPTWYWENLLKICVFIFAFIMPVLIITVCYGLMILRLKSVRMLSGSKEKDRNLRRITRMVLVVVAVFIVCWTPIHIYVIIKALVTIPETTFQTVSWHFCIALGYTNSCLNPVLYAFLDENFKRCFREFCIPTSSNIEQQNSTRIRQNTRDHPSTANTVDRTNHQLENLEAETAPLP

[3] = target: T3, human δ-opioid receptor (OPRD1) (Homo sapiens, UniProt P41143); assay: forskolin-induced cAMP accumulation assay, DOR agonist; conditions: for Emax: CHO-K1, read-out: DOR Agonist %Emax ± SEM, CHO-K1 cells expressing human DOR; for EC50: DOR Agonist EC50 ± SEM, inhibition of forskolin-induced cAMP accumulation
T3 sequence (P41143 whole entry): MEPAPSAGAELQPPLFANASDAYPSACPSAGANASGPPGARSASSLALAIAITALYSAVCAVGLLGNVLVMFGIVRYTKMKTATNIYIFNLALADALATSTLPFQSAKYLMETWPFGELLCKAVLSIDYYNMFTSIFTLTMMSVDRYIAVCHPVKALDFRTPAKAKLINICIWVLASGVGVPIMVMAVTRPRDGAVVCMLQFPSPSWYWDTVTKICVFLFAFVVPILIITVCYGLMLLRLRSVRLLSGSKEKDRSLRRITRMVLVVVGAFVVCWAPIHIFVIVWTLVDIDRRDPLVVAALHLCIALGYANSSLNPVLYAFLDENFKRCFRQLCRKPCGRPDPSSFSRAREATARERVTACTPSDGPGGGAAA

[4] = target: T1, human κ-opioid receptor (OPRK1); assay: forskolin-induced cAMP accumulation assay, KOR antagonist
[5] = target: T3, human δ-opioid receptor (OPRD1); assay: forskolin-induced cAMP accumulation assay, DOR antagonist; type: cell-based; design: host or cells: cAMP Hunter CHO-K1 (Chinese hamster ovary) cells; conditions: for DOR Antagonist %Imax ± SEM: CHO-K1 human DOR, versus EC50 of SNC80, Imax normalized to naltrexone
[6] = normalized to the forskolin control
[7] = CHO-K1 cells expressing human DOR

For N[C@H]1[C@H]2CCC[C@]1(c1cccc(O)c1)CCN2CCc1ccccc1 [1R,5R,9R-23, 3-((1R,5R,9R)-9-Amino-2-phenethyl-2-azabicyclo[3.3.1]nonan-5-yl)phenol], the EC50 [1] was greater than 10000 nM, the EC50 [2] was 26 nM and 26.1 nM and the Emax [2] was 81%. The Emax [3, 6] was 46.6%, the EC50 [3, 7] was 186 ± 12.5 nM and the IC50 [4] was greater than 10000 nM.

Work on N[C@@H]1[C@H]2CCC[C@]1(c1cccc(O)c1)CCN2CCc1ccccc1 [1R,5R,9S-6, 3-((1R,5R,9S)-9-Amino-2-phenethyl-2-azabicyclo[3.3.1]nonan-5-yl)phenol] yielded an EC50 [1] greater than 10000 nM, an IC50 [5] greater than 10000 nM and an EC50 [2] of 24 nM. The Emax [2] was 91%, the Emax [3, 6] was 39.4% and the EC50 [3, 7] was 690 ± 188 nM. For the same compound, the IC50 [4] was greater than 10000 nM.

With CN[C@@H]1[C@H]2CCC[C@]1(c1cccc(O)c1)CCN2CCc1ccccc1 [1R,5R,9S-10, 3-((1R,5R,9S)-9-(Methylamino)-2-phenethyl-2-azabicyclo[3.3.1]nonan-5-yl)phenol] the EC50 [2] was 83 nM and 82.8 nM and the Emax [2] was 28%.

In the case of ON=C1[C@H]2CCC[C@]1(c1cccc(O)c1)CCN2CCc1ccccc1 [1R,5R-17, (1R,5R)-5-(3-Hydroxyphenyl)-2-phenethyl-2-azabicyclo[3.3.1]nonan-9-one oxime], the Emax [1] is reported as 21.2%, the EC50 [1] is reported as 146 ± 19 nM and the IC50 [5] is reported as 1080 ± 464 nM. The “DOR Antagonist %Imax ± SEM” value [5] was 66.5 ± 6.0%, the EC50 [2] was 22 nM and 22.1 nM and the Emax [2] was 99%. It also gave an Emax [3, 6] of 32.2%, an EC50 [3, 7] of 157 ± 72 nM and an IC50 [4] greater than 10000 nM.

For N#CC=C1[C@H]2CCC[C@]1(c1cccc(O)c1)CCN2CCc1ccccc1 [1R,5R-33, 2-((1R,5R)-5-(3-hydroxyphenyl)-2-phenethyl-2-azabicyclo[3.3.1]nonan-9-ylidene)acetonitrile], the Emax [1] was greater than 50%, the EC50 [1] was greater than 10000 nM and the “MOR agonist potency relative to morphine (times more potent)” value [2] was “about three times”. For the same compound, the EC50 [2] was 1.8 nM, the Emax [2] was 100% and the Emax [3, 6] was 69%. For the same compound, the “DOR Agonist %Emax ± SEM” value ([3]; CHO-K1 cells expressing human DOR, normalized to the forskolin control) was 69.3 ± 6.0% and the EC50 [3, 7] was 8 nM and 8.1 nM.

N#CC[C@H]1[C@H]2CCC[C@]1(c1cccc(O)c1)CCN2CCc1ccccc1 [1R,5S,9R-35, 2-((1R,5S,9R)-5-(3-hydroxyphenyl)-2-phenethyl-2-azabicyclo[3.3.1]nonan-9-yl)acetonitrile] was tested, and the EC50 [1] was greater than 10000 nM, the IC50 [5] was 94.5 ± 29.5 nM and the “DOR Antagonist %Imax ± SEM” value [5] was 35.1 ± 2.6%. For the same compound, the EC50 [2] was 0.85 nM, the Emax [2] was 99% and the Emax [3, 6] was 35%. For the same compound, the EC50 [3, 7] was 4 nM and 4.3 nM and the IC50 [4] was greater than 10000 nM.

For CNC[C@@H]1[C@H]2CCC[C@]1(c1cccc(O)c1)CCN2CCc1ccccc1 [1R,5S,9R-52, 3-((1R,5S,9R)-9-((Methylamino)methyl)-2-phenethyl-2-azabicyclo[3.3.1]nonan-5-yl)phenol], the Emax [1] was 57%, the EC50 [1] was 210 ± 92 nM and the EC50 [2] was 43 nM and 43.3 nM. It also gave an Emax [2] of 94%, an Emax [3, 6] of 62% and an EC50 [3, 7] of 502 ± 125 nM.

N#CC[C@@H]1[C@H]2CCC[C@]1(c1cccc(O)c1)CCN2CCc1ccccc1 [1R,5S,9S-41, 2-((1R,5S,9S)-5-(3-Hydroxyphenyl)-2-phenethyl-2-azabicyclo[3.3.1]nonan-9-yl)acetonitrile] showed an EC50 [2] greater than 10000 nM.

For CNC[C@H]1[C@H]2CCC[C@]1(c1cccc(O)c1)CCN2CCc1ccccc1 [1R,5S,9S-53, 3-((1R,5S,9S)-9-((Methylamino)methyl)-2-phenethyl-2-azabicyclo[3.3.1]nonan-5-yl)phenol], the EC50 [1] was greater than 10000 nM, the IC50 [5] was 1630 ± 882 nM and the “DOR Antagonist %Imax ± SEM” value [5] was 109.3 ± 5.2%. The EC50 [2] was 16 nM and 15.9 nM, the Emax [2] was 97% and the Emax [3, 6] was 17.4%. For the same compound, the EC50 [3, 7] was 43.9 ± 22.2 nM and the IC50 [4] was greater than 10000 nM.

In the case of N#CC[C@H]1[C@@H]2CCC[C@@]1(c1cccc(O)c1)CCN2CCc1ccccc1 [1S,5R,9R-38, 2-((1S,5R,9R)-5-(3-Hydroxyphenyl)-2-phenethyl-2-azabicyclo[3.3.1]nonan-9-yl)acetonitrile], the EC50 [1] is reported as greater than 10000 nM, the “MOR agonist potency relative to morphine (times more potent)” value [2] is reported as “about twice” and the EC50 [2] is reported as 2.5 nM. It also gave an Emax [2] of 89.6%, an Emax [3, 6] of 46.8% and an EC50 [3, 7] of 55 ± 3.9 nM. For the same compound, the IC50 [4] was 44 ± 4 nM and the “KOR Antagonist %Imax ± SEM” value ([4]; CHO-K1 human KOR, versus EC90 of U50488H, Imax normalized to nor-BNI) was 97 ± 0.1%.

For CNC[C@@H]1[C@@H]2CCC[C@@]1(c1cccc(O)c1)CCN2CCc1ccccc1 [1S,5R,9R-47, 3-((1S,5R,9R)-9-((Methylamino)methyl)-2-phenethyl-2-azabicyclo[3.3.1]nonan-5-yl)phenol], the Emax [1] was 93.4%, the EC50 [1] was 95.7 ± 17 nM and the EC50 [2] was 3.7 nM and 3.66 nM. For the same compound, the Emax [2] was 102%, the Emax [3, 6] was 84.7% and the EC50 [3, 7] was 416 ± 21.1 nM.

N#CC[C@@H]1[C@@H]2CCC[C@@]1(c1cccc(O)c1)CCN2CCc1ccccc1 [1S,5R,9S-34, 2-((1S,5R,9S)-5-(3-Hydroxyphenyl)-2-phenethyl-2-azabicyclo[3.3.1]nonan-9-yl)acetonitrile] was tested, and the EC50 [1] was greater than 10000 nM, the EC50 [2] was 27 nM and 27.3 nM and the Emax [2] was 101%. For the same compound, the Emax [3, 6] was 61.5%, the EC50 [3, 7] was 575 ± 127 nM and the IC50 [4] was greater than 10000 nM.

Work on N[C@H]1[C@@H]2CCC[C@@]1(c1cccc(O)c1)CCN2CCc1ccccc1 [1S,5S,9R-3, 3-((1S,5S,9R)-9-Amino-2-phenethyl-2-azabicyclo[3.3.1]nonan-5-yl)phenol] yielded an EC50 [1] greater than 10000 nM and an EC50 [2] greater than 10000 nM.

CN[C@H]1[C@@H]2CCC[C@@]1(c1cccc(O)c1)CCN2CCc1ccccc1 [1S,5S,9R-8, 3-((1S,5S,9R)-9-(Methylamino)-2-phenethyl-2-azabicyclo[3.3.1]nonan-5-yl)phenol] showed an EC50 [1] greater than 10000 nM and an EC50 [2] greater than 10000 nM.

N[C@@H]1[C@@H]2CCC[C@@]1(c1cccc(O)c1)CCN2CCc1ccccc1 [1S,5S,9S-22, 3-((1S,5S,9S)-9-Amino-2-phenethyl-2-azabicyclo[3.3.1]nonan-5-yl)phenol] was tested, and the EC50 [2] was 94 nM and 94.1 nM and the Emax [2] was 53%.

For ON=C1[C@@H]2CCC[C@@]1(c1cccc(O)c1)CCN2CCc1ccccc1 [1S,5S-15, (1S,5S)-5-(3-Hydroxyphenyl)-2-phenethyl-2-azabicyclo[3.3.1]nonan-9-one oxime], the EC50 [1] was greater than 10000 nM, the EC50 [2] was 229 nM and the Emax [2] was 91%.

N#CC=C1[C@@H]2CCC[C@@]1(c1cccc(O)c1)CCN2CCc1ccccc1 [1S,5S-28, 2-((1S,5S)-5-(3-Hydroxyphenyl)-2-phenethyl-2-azabicyclo[3.3.1]nonan-9-ylidene)acetonitrile] was tested, and the EC50 [1] was greater than 10000 nM, the EC50 [2] was 27 nM and 27.2 nM and the Emax [2] was 101%. The Emax [3, 6] was 51.4%, the EC50 [3, 7] was 1520 ± 385 nM and the IC50 [4] was greater than 10000 nM.

In the case of Oc1ccc2c3c1O[C@H]1c4[nH]c5ccccc5c4C[C@@]4(O)[C@@H](C2)N(CC2CC2)CC[C@]314 [Naltrindole, reference compound], the “DOR Antagonist %Imax ± SEM” value [5] is reported as 106.8 ± 4.8%.
